For orientation: Kd means the equilibrium constant for the complex coming apart.

Molecules are shown by their SMILES. Calls of active or inactive are those of the source. A value given as a limit tells only on which side of the number the result lay.

For test [1], the target named is U5 small nuclear ribonucleoprotein 200 kDa helicase (Homo sapiens, UniProt O75643).
Test [2] concerns the target Ras-related protein Rab-6A (Homo sapiens, UniProt P20340).
Test [3] has as its target T1, Serine/threonine-protein kinase STK11 (Homo sapiens, UniProt Q15831).
T1 sequence (Q15831 whole entry): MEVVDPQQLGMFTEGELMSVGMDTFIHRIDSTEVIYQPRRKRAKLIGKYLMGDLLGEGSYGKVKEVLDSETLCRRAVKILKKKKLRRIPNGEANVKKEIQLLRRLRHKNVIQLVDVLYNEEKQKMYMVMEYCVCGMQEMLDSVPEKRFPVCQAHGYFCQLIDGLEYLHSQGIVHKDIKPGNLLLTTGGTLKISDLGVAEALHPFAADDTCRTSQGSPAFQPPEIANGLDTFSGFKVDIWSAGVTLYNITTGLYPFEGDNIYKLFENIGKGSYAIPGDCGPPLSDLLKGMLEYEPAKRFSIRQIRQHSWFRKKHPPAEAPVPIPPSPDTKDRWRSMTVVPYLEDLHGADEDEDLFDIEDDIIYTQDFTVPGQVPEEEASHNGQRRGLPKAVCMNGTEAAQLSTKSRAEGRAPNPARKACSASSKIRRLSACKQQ

In test [4] the target is Dual specificity testis-specific protein kinase 1 (Homo sapiens, UniProt Q15569).
Test [5] addresses T2, Mitogen-activated protein kinase 15 (Homo sapiens, UniProt Q8TD08).
T2 sequence (Q8TD08 whole entry): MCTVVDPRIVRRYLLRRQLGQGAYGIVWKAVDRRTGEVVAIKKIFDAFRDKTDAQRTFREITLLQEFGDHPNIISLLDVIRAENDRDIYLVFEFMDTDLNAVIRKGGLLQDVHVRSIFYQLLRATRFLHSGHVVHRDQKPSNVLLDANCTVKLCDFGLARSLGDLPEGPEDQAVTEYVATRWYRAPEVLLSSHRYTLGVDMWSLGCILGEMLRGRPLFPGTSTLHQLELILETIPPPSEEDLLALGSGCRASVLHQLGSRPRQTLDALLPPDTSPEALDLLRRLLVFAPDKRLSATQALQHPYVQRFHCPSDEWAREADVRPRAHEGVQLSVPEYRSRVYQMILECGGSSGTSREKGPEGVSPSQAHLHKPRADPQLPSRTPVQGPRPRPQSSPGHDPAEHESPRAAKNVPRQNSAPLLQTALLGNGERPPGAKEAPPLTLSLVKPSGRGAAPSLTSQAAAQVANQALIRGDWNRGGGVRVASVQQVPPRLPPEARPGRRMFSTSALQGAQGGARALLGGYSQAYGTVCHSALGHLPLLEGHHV

Test [6] deals with T3, Ephrin type-B receptor 6 (Homo sapiens, UniProt O15197).
T3 sequence (O15197 whole entry): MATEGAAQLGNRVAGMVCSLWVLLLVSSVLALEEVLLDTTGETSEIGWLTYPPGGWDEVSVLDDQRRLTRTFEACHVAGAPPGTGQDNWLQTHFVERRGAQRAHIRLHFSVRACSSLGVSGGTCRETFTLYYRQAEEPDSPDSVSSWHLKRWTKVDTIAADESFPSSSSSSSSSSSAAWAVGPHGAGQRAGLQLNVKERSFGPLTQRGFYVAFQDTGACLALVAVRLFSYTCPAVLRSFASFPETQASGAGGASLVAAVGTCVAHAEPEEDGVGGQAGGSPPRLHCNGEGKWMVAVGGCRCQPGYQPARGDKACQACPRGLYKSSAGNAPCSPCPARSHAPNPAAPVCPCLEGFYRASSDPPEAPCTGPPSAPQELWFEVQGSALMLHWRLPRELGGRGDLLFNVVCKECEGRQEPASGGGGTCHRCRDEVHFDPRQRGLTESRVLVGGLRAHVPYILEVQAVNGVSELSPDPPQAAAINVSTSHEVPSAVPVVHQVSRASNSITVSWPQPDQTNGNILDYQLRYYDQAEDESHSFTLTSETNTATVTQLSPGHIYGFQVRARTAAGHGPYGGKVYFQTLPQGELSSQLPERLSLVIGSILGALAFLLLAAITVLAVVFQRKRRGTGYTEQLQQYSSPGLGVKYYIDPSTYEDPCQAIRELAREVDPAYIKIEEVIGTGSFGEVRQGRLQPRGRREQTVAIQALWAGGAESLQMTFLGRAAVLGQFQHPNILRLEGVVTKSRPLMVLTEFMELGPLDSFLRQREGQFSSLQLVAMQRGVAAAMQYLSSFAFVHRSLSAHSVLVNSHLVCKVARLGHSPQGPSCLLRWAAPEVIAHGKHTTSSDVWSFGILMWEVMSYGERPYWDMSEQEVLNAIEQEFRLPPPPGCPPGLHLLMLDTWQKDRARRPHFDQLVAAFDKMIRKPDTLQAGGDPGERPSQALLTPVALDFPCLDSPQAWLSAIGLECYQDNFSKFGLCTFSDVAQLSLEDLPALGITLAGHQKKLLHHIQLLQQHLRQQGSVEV

Test [7] addresses Wee1-like protein kinase (Homo sapiens, UniProt P30291).
The target in test [8] is Cyclin-dependent kinase 6 (Homo sapiens, UniProt Q00534).
Also: in the data inactive means no Kd found up to 30 µM.

Sequence of U5 small nuclear ribonucleoprotein 200 kDa helicase (O75643 whole entry): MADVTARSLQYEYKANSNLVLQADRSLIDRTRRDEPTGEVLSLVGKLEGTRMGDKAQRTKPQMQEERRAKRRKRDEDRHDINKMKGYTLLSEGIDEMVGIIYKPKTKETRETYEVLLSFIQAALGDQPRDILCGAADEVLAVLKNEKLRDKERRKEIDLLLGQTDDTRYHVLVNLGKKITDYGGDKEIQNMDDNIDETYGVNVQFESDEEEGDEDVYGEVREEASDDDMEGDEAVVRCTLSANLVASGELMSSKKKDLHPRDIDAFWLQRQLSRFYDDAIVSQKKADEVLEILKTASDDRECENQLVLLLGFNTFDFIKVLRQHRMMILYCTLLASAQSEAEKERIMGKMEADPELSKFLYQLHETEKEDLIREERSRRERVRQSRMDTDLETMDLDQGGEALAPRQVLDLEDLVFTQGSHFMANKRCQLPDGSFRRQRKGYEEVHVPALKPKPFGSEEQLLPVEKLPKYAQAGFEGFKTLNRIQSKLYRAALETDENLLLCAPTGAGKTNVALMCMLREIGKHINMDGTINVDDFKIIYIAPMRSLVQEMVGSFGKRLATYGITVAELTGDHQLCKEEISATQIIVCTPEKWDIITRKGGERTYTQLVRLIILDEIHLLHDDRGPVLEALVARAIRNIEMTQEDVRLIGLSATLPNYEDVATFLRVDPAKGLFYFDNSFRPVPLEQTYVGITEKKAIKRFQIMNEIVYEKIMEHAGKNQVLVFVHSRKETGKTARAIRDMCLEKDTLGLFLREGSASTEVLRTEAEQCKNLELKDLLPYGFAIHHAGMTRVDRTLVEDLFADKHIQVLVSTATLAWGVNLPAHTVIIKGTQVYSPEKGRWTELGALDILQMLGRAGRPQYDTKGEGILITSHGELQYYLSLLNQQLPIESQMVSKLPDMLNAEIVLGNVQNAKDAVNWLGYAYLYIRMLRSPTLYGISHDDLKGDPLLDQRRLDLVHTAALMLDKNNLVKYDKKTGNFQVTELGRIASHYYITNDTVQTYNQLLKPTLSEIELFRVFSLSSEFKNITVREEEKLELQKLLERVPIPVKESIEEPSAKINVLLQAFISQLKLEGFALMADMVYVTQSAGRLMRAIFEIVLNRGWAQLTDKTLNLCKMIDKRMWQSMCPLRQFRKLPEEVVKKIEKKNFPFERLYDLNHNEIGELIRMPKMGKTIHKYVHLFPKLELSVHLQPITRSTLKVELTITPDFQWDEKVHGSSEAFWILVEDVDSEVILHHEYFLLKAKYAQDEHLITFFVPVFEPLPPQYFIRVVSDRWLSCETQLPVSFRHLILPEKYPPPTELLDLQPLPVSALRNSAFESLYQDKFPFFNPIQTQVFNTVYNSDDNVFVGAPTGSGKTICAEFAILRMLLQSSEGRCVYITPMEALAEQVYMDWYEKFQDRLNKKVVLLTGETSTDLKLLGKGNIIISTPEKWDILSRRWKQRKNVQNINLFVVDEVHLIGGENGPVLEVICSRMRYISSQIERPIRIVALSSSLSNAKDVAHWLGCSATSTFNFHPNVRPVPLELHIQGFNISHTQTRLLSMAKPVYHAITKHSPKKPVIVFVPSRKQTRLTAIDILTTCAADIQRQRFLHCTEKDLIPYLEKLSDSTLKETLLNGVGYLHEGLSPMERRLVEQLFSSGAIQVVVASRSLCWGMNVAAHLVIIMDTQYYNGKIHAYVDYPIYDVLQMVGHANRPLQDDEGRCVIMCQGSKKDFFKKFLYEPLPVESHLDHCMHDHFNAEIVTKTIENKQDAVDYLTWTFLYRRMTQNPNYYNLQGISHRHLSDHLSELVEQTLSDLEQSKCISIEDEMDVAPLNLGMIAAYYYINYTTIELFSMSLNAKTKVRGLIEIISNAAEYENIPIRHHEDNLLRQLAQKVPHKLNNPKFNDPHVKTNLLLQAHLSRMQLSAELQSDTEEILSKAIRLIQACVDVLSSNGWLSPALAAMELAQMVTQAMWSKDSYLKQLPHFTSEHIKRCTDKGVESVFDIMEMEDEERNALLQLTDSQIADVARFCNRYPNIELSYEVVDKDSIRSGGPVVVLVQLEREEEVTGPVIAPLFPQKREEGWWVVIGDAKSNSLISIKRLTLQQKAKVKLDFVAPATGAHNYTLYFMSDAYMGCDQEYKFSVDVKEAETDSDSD
Sequence of Ras-related protein Rab-6A (P20340 whole entry): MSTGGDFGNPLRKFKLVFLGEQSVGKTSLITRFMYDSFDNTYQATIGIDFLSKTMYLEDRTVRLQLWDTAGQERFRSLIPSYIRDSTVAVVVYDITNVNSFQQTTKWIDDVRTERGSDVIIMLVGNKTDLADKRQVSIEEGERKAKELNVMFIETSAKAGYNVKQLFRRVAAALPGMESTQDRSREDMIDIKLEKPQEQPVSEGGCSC
Sequence of Cyclin-dependent kinase 6 (Q00534 whole entry): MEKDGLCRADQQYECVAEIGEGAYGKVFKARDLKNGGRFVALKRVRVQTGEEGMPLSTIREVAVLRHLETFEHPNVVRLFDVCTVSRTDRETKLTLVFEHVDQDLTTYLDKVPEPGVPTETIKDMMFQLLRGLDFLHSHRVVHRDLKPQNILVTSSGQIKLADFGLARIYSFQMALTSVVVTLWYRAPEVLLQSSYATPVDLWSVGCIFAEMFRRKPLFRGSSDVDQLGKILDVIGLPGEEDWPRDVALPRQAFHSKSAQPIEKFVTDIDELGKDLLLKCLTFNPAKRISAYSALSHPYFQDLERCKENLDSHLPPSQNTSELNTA
Sequence of Dual specificity testis-specific protein kinase 1 (Q15569 whole entry): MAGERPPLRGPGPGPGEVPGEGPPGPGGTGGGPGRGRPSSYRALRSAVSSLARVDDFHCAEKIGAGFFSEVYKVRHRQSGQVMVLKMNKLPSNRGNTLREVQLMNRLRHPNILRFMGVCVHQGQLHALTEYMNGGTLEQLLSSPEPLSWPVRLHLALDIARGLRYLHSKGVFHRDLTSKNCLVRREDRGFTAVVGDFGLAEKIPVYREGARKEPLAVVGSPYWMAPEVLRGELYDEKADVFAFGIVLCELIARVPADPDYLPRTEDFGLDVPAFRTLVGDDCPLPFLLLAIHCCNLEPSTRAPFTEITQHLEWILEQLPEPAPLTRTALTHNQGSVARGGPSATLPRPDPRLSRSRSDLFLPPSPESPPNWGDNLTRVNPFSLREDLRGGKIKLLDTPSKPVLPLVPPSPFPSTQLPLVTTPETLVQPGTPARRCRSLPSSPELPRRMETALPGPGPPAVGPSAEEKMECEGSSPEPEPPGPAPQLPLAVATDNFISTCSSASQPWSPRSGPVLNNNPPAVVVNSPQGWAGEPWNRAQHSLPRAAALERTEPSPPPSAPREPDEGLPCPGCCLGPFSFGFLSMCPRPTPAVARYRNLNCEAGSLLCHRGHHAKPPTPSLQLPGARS
Sequence of Wee1-like protein kinase (P30291 whole entry): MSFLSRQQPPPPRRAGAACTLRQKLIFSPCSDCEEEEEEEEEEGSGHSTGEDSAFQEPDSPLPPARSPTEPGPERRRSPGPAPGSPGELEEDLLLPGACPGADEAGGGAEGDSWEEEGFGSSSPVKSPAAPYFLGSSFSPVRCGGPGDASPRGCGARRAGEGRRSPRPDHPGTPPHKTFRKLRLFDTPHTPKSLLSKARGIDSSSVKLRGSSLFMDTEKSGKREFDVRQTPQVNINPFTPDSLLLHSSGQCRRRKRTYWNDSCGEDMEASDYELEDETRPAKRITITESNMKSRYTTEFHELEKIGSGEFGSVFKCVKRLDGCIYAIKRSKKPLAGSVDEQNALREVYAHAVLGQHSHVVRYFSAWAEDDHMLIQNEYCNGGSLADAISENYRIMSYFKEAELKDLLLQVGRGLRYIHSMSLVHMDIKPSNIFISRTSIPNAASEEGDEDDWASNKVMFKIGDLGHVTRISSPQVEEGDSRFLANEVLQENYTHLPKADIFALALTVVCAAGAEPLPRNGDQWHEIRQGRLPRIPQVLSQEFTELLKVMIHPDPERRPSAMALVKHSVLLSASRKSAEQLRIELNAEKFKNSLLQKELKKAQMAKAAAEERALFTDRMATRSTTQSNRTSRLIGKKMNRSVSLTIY

On to `CCNC(=O)C#Cc1ccc2c(c1)NC(=O)/C2=C(\Nc1ccc(CN(C)C)cc1)c1ccccc1`, for which the Kd in test [1], in test [2], in test [3], in test [4], in test [5] and in test [6] was > 30 µM (inactive) in each case. In addition, the Kd was > 30 µM (inactive) in test [7] and 2.97 µM (active) in test [8].

On to `Cc1nc2cc(-c3nn(C(C)C)c4ncnc(N)c34)ccc2o1`, for which the Kd in test [1], in test [2], in test [3], in test [4], in test [5] and in test [6] was > 30 µM (inactive) throughout. Further, the Kd in test [7] and in test [8] was > 30 µM (inactive) throughout.

For the compound `COCc1c(-c2ccc(NC(=O)Nc3cc(C(F)(F)F)ccc3F)c(F)c2)c2c(N)ncnn2c1CN1CCOCC1`, the Kd in test [1], in test [2], in test [3], in test [4], in test [5] and in test [6] was > 30 µM (inactive) in each case. The Kd in test [7] and in test [8] was > 30 µM (inactive) throughout.

For the compound `COc1cc(Nc2ncc3c(n2)-c2ccc(Cl)cc2C(c2c(F)cccc2OC)=NC3)ccc1C(=O)O` [ALISERTIB], the Kd in test [1], in test [2], in test [3], in test [4], in test [5] and in test [6] was > 30 µM (inactive) each time. Further, the Kd in test [7] and in test [8] was > 30 µM (inactive) throughout.

Consider `Cc1nc(NC(=O)N2CCC[C@H]2C(N)=O)sc1-c1ccnc(C(C)(C)C(F)(F)F)c1` [ALPELISIB], for which the Kd in test [1], in test [2], in test [3], in test [4], in test [5] and in test [6] was > 30 µM (inactive) each time. Besides, the Kd in test [7] and in test [8] was > 30 µM (inactive) each time.

Turning to `C=CC(=O)Nc1cc2c(Nc3ccc(F)c(Cl)c3)ncnc2cc1C#CC(C)(C)N1CCN(C)CC1` [AV-412 FREE BASE], the Kd in test [1], in test [2], in test [3], in test [4], in test [5] and in test [6] was > 30 µM (inactive) throughout. The Kd in test [7] and in test [8] was > 30 µM (inactive) throughout.

Consider `COc1cc([C@@H]2c3cc4c(cc3[C@H](O)[C@H]3COC(=O)[C@@H]23)OCO4)cc(OC)c1OC` [AXL-1717], for which the Kd in test [1], in test [2], in test [3], in test [4], in test [5] and in test [6] was > 30 µM (inactive) each time. Moreover, the Kd in test [7] and in test [8] was > 30 µM (inactive) in each case.

Regarding `Cn1cnc2c(F)c(Nc3ccc(Br)cc3F)c(C(=O)NOCCO)cc21` [BINIMETINIB], the Kd in test [1], in test [2], in test [3], in test [4], in test [5] and in test [6] was > 30 µM (inactive) each time. Besides, the Kd in test [7] and in test [8] was > 30 µM (inactive) in each case.

`CCn1c(C(=O)N(C2CC2)C2CC2)cc2c3c(ncn3C)c(Nc3cc(C)n(C)n3)nc21` [BMS-911543]: the Kd in test [1], in test [2], in test [3], in test [4], in test [5] and in test [6] was > 30 µM (inactive) throughout. In addition, the Kd in test [7] and in test [8] was > 30 µM (inactive) throughout.

On to `COc1cc2ncnc(Oc3cccc(NC(=O)Nc4cc(C(C)(C)C(F)(F)F)on4)c3)c2cc1OC` [CEP-32496], for which the Kd in test [1], in test [2], in test [3], in test [4], in test [5] and in test [6] was > 30 µM (inactive) in each case. In addition, the Kd in test [7] and in test [8] was > 30 µM (inactive) each time.

For the compound `Cc1cc(Nc2ncc(Cl)c(Nc3ccccc3S(=O)(=O)C(C)C)n2)c(OC(C)C)cc1C1CCNCC1` [CERITINIB], the Kd in test [1], in test [2], in test [3], in test [4], in test [5] and in test [6] was > 30 µM (inactive) in each case. Besides, the Kd in test [7] and in test [8] was > 30 µM (inactive) throughout.

Regarding `COc1c(OCCCN2CCOCC2)ccc2c1N=C(NC(=O)c1cnc(N)nc1)N1CCN=C21` [COPANLISIB], the Kd in test [1], in test [2], in test [3], in test [4], in test [5] and in test [6] was > 30 µM (inactive) each time. Further, the Kd in test [7] and in test [8] was > 30 µM (inactive) each time.

Take `COCC(=O)NC/C=C/c1ccc2ncnc(Nc3ccc(Oc4ccc(C)nc4)c(C)c3)c2c1` [CP-724714]: the Kd in test [1], in test [2], in test [3], in test [4], in test [5] and in test [6] was > 30 µM (inactive) each time. Also, the Kd in test [7] and in test [8] was > 30 µM (inactive) in each case.

`C#Cc1cccc(Nc2ncnc3cc(OC)c(OCCCCCCC(=O)NO)cc23)c1` [CUDC-101]: the Kd in test [1], in test [2], in test [3], in test [4], in test [5] and in test [6] was > 30 µM (inactive) each time. In addition, the Kd in test [7] and in test [8] was > 30 µM (inactive) throughout.

The values above are taken from ChEMBL document CHEMBL3991601, “The target landscape of clinical kinase drugs” (Science, 2017).
